Reference: patent publication US11999727B2 (Tango Therapeutics, Inc., priority 2020, dated 2024)
pIC50: −log10 of the molar value. Like-named read-outs stand apart in the source and are kept apart here.

Tests used:
[1] = target: T1, PRMT5 (Homo sapiens, UniProt O14744); assay: PRMT5 biochemical IC50 assay with SAM as cofactor; conditions: PRMT5, SAM as cofactor; read-out: SAM IC50
T1 construct: purchased Viva (custom protein)

[2] = target: T1, PRMT5; assay: PRMT5 biochemical IC50 assay with no cofactor; conditions: PRMT5, no cofactor
Description: Table 1 indicates IC50 values (μM) against PRMT5 for exemplary compounds in the presence of SAM as cofactor, with no cofactor, and with MTA as cofactor, respectively (columns 4-6). […] Ki values can be calculated from the IC50 values as described in the Examples section. As detailed in the Examples section, for the assay performed in the presence of SAM, IC50=Ki×1.5 (Ki=IC50/1.5).

[3] = target: T1, PRMT5; assay: PRMT5 biochemical IC50 assay with MTA as cofactor; conditions: PRMT5, MTA as cofactor; read-out: MTA IC50
[4] = tested on: HAP1 MTAP-intact cell line; assay: SDMA in-cell western assay, HAP1 MTAP-intact; assay type: cell-based
In short: (§1)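 Readout: in-cell western detection of SDMA. Cells: HAP1 expressing endogenous MTAP and an MTAP-null HAP1 counterpart. Output: IC50.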

[5] = tested on: HAP1 MTAP-deleted cell line; assay: SDMA in-cell western assay, HAP1 MTAP-deleted; assay type: cell-based
In short: as §1

[6] = tested on: HAP1 MTAP-deleted cell line; assay: Viability assay, MTAP-deleted cell line; assay type: cell-based
Description: Table 1 additionally indicates IC50 values in a viability assay for the MTAP-deleted cell line (column 10), indicating the effect of treatment with compound on cell survival.

[7] = Homo sapiens, HAP1, SDMA in-cell western, HAP1 MTAP-intact, read-out: MTAP HAP1 intact IC50
[8] = Homo sapiens, HAP1, SDMA in-cell western, HAP1 MTAP-deleted, read-out: HAP 1 MTAP deleted IC50
[9] = IC50 ratio HAP1 MTAP-intact / HAP1 MTAP-deleted, SDMA in-cell western
[10] = Homo sapiens, HAP1, viability IC50, MTAP-deleted cell line, read-out: HAP1 MTAP deleted viability
[11] = Homo sapiens, HAP1, read-out: MTAP HAP1 intact IC50
[12] = Homo sapiens, HAP1, read-out: HAP1 MTAP deleted IC50
[13] = Homo sapiens, HAP1, read-out: HAP1 MTAP deleted viability
[14] = Homo sapiens, HAP1, SDMA in-cell western, HAP1 MTAP-deleted, read-out: HAP1 MTAP deleted IC50
[15] = Homo sapiens, HAP1, viability assay, MTAP-deleted cell line, read-out: HAP1 MTAP deleted viability
[16] = read-out: No Cofactor/ rel IC50
[17] = Homo sapiens, HAP1, viability assay, HAP1 MTAP-deleted, read-out: HAP1 MTAP deleted viability
[18] = Homo sapiens, HAP1, viability, HAP1 MTAP-deleted cell line, read-out: HAP1 MTAP deleted viability

T1 sequence (O14744 whole entry): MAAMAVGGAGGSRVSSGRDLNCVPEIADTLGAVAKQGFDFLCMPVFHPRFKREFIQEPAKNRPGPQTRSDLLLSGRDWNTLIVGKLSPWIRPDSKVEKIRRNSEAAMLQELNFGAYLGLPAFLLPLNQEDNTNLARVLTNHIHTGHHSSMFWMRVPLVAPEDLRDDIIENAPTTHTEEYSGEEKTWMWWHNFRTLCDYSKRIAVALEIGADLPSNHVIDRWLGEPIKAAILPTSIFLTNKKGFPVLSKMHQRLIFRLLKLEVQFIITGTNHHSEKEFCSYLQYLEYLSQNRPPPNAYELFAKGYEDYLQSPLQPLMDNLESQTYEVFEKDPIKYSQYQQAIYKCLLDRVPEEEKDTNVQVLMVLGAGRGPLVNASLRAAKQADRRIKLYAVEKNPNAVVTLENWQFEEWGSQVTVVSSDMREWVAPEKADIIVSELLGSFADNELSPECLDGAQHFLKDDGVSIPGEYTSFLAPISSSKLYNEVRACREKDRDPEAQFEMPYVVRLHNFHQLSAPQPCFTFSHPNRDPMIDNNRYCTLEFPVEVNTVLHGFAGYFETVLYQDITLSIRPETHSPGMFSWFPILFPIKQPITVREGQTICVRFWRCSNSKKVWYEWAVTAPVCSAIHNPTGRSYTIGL
T1 sequence (Q9BQA1 whole entry partner): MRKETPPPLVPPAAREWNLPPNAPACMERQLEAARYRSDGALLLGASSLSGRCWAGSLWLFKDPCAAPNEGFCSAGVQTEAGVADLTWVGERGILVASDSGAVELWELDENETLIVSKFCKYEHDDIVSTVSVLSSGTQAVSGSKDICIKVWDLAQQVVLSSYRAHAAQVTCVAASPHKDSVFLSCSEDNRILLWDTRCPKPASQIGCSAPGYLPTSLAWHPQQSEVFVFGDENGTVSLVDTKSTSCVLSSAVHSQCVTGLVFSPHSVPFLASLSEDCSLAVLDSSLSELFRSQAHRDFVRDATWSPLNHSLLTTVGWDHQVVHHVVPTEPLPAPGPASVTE

Row | SMILES | pIC50 [1] | pIC50 ([2]; read-out: No Cofactor/rel IC50) | pIC50 [3] | pIC50 [4, 7] | pIC50 [5, 8] | pIC50 [5, 14] | pIC50 [2, 16] | pIC50 ([4]; SDMA in-cell western, HAP1 MTAP-intact, read-out: MTAP HAP1 intact IC50) | pIC50 ([5]; SDMA in-cell western, HAP1 MTAP-deleted, read-out: HAP1 MTAP deleted IC50) | MTAP intact/deleted ratio [5, 9] | pIC50 [6, 10] | pIC50 [4, 11] | pIC50 [5, 12] | pIC50 [6, 13] | pIC50 [6, 15] | pIC50 [6, 17] | MTAP intact/deleted ratio ([5]; IC50 ratio HAP1 MTAP-intact vs HAP1 MTAP-deleted, SDMA in-cell western) | pIC50 [6, 18] | pIC50 ([6]; viability assay, HAP1 MTAP-deleted, read-out: HAP1 MTAP deleted viability)
1 | CC[C@@H]1CC[C@@H](c2ccccc2)N(C(=O)C(=O)Nc2cncc(C(N)=O)c2)C1 (single isomer, unassigned) [Compound 576] | < 6.30 | < 6.30 | < 6.30 | < 6.00 | < 6.00 | – | – | – | – | C (an IC50 ratio of less than 3 fold) | < 5.00 | – | – | – | – | – | – | – | –
2 | COc1ncc(NC(=O)C(=O)N2C[C@H](C)CC[C@H]2c2ccccc2)cc1C(N)=O (single isomer, unassigned) [Compound 333] | 6.30 to 7.30 | > 7.30 | > 7.30 | – | – | – | – | – | – | A (an IC50 ratio greater than or equal to 10 fold) | – | < 6.00 | > 7.00 | > 6.00 | – | – | – | – | –
3 | C[C@@H]1CC[C@@H](c2cccc(F)c2)N(C(=O)C(=O)Nc2cncc(C(N)=O)c2)C1 (racemic) [Compound 247, rac-5-{2-[(2R,5S)-2-(3-Fluorophenyl)-5-methylpiperidin-1-yl]-2-oxoacetamido}pyridine-3-carboxamide] | 6.30 to 7.30 | 6.30 to 7.30 | > 7.30 | < 6.00 | – | > 7.00 | – | – | – | A (an IC50 ratio greater than or equal to 10 fold) | – | – | – | – | 5.00 to 6.00 | – | – | – | –
4 | Cc1cncc(NC(=O)C(=O)N2C[C@H](C)CC[C@H]2c2cccc(C)c2)c1 (racemic) [Compound 8, rac-2-[(2R,5S)-5-methyl-2-(m-tolyl)-1-piperidyl]-N-(5-methyl-3-pyridyl)-2-oxo-acetamide] | < 6.30 | – | 6.30 to 7.30 | < 6.00 | < 6.00 | – | < 6.30 | – | – | C (an IC50 ratio of less than 3 fold) | – | – | – | – | < 5.00 | – | – | – | –
5 | C[C@H]1CC[C@H]([C@@H]2CCC[C@@H](O)C2)N(C(=O)C(=O)Nc2cncc(C(N)=O)c2)C1 (single isomer, unassigned) [Compound 520] | 6.30 to 7.30 | 6.30 to 7.30 | 6.30 to 7.30 | < 6.00 | – | 6.00 to 7.00 | – | – | – | A (an IC50 ratio greater than or equal to 10 fold) | – | – | – | – | < 5.00 | – | – | – | –
6 | CC[C@@H]1CCN(C(=O)C(=O)Nc2cncc(C(N)=O)c2)[C@H](c2ccccc2)C1 (racemic) [Compound 497, rac-5-[[2-[(2S,4R)-4-ethyl-2-phenyl-1-piperidyl]-2-oxo-acetyl]amino]pyridine-3-carboxamide] | 6.30 to 7.30 | 6.30 to 7.30 | > 7.30 | < 6.00 | – | 6.00 to 7.00 | – | – | – | A (an IC50 ratio greater than or equal to 10 fold) | – | – | – | – | 5.00 to 6.00 | – | – | – | –
7 | C[C@@H]1CC[C@@H](c2ccccc2F)N(C(=O)C(=O)Nc2cncc(C(N)=O)c2)C1 (racemic) [Compound 595, 5-[[2-[(2R,5S)-2-(2-Fluorophenyl)-5-methyl-1-piperidyl]-2-oxo-acetyl]amino]pyridine-3-carboxamide] | 6.30 to 7.30 | 6.30 to 7.30 | 6.30 to 7.30 | < 6.00 | > 7.00 | – | – | – | – | A (an IC50 ratio greater than or equal to 10 fold) | 5.00 to 6.00 | – | – | – | – | – | – | – | –
8 | C[C@@H]1CC[C@@H](c2cc(F)c3[nH]ncc3c2)N(C(=O)C(=O)Nc2cncc(C(N)=O)c2)C1 (single isomer, unassigned) [Compound 663] | 6.30 to 7.30 | > 7.30 | > 7.30 | < 6.00 | > 7.00 | – | – | – | – | A (an IC50 ratio greater than or equal to 10 fold) | 5.00 to 6.00 | – | – | – | – | – | – | – | –
9 | COc1ncc(NC(=O)C(=O)N2C[C@H](C)CC[C@@H]2c2ccccc2)cc1C(N)=O (single isomer, unassigned) [Compound 308] | 6.30 to 7.30 | < 6.30 | > 7.30 | – | – | – | – | – | – | A (an IC50 ratio greater than or equal to 10 fold) | – | < 6.00 | 6.00 to 7.00 | < 5.00 | – | – | – | – | –
10 | C[C@H]1CC[C@H](c2ccc(O)c(F)c2)N(C(=O)C(=O)Nc2cncc(C(N)=O)c2)C1 (single isomer, unassigned) [Compound 354] | 6.30 to 7.30 | > 7.30 | > 7.30 | 6.00 to 7.00 | – | > 7.00 | – | – | – | A (an IC50 ratio greater than or equal to 10 fold) | – | – | – | – | > 6.00 | – | – | – | –
11 | Cc1cc(NC(=O)C(=O)N2C[C@@H](C)C(F)(F)C[C@@H]2c2ccc(F)c(F)c2)cnc1N (single isomer, unassigned) [Compound 705] | 6.30 to 7.30 | > 7.30 | > 7.30 | 6.00 to 7.00 | – | > 7.00 | – | – | – | B (an IC50 ratio greater than or equal to 3 fold but lower than 10 fold) | – | – | – | – | – | > 6.00 | – | – | –

More lines, main results first:

Row | pIC50 [1] | pIC50 ([2]; read-out: No Cofactor/rel IC50) | pIC50 [3] | pIC50 [4, 7] | pIC50 [5, 8] | pIC50 [5, 14] | pIC50 [2, 16] | pIC50 ([4]; SDMA in-cell western, HAP1 MTAP-intact, read-out: MTAP HAP1 intact IC50) | pIC50 ([5]; SDMA in-cell western, HAP1 MTAP-deleted, read-out: HAP1 MTAP deleted IC50) | SMILES | MTAP intact/deleted ratio [5, 9] | pIC50 [6, 10] | pIC50 [4, 11] | pIC50 [5, 12] | pIC50 [6, 13] | pIC50 [6, 15] | pIC50 [6, 17] | MTAP intact/deleted ratio ([5]; IC50 ratio HAP1 MTAP-intact vs HAP1 MTAP-deleted, SDMA in-cell western) | pIC50 [6, 18] | pIC50 ([6]; viability assay, HAP1 MTAP-deleted, read-out: HAP1 MTAP deleted viability)
12 | 6.30 to 7.30 | > 7.30 | > 7.30 | 6.00 to 7.00 | – | > 7.00 | – | – | – | Cc1cc(NC(=O)C(=O)N2C[C@@H](C)CC[C@@H]2c2ccc(C(N)=O)s2)cnc1N (single isomer, unassigned) [Compound 733] | A (an IC50 ratio greater than or equal to 10 fold) | – | – | – | – | – | > 6.00 | – | – | –
13 | < 6.30 | < 6.30 | < 6.30 | < 6.00 | – | < 6.00 | – | – | – | COc1ncc(NC(=O)C(=O)N2C[C@H](C)CC[C@H]2c2ccc(-c3nccs3)cc2)cc1C(N)=O (single isomer, unassigned) [Compound 799] | C (an IC50 ratio of less than 3 fold) | – | – | – | – | – | < 5.00 | – | – | –
14 | 6.30 to 7.30 | > 7.30 | > 7.30 | < 6.00 | – | > 7.00 | – | – | – | C[C@H]1CC[C@H](c2ccc3[nH]ncc3n2)N(C(=O)C(=O)Nc2cncc(C(N)=O)c2)C1 (single isomer, unassigned) [Compound 778] | A (an IC50 ratio greater than or equal to 10 fold) | – | – | – | – | – | 5.00 to 6.00 | – | – | –
15 | < 6.30 | < 6.30 | 6.30 to 7.30 | < 6.00 | < 6.00 | – | – | – | – | CCc1cc(NC(=O)C(=O)N2C[C@H](C)CC[C@H]2c2cc(Cl)cc(Cl)c2)cnc1N (single isomer, unassigned) [Compound 966] | B (an IC50 ratio greater than or equal to 3 fold but lower than 10 fold) | – | – | – | – | < 5.00 | – | – | – | –
16 | 6.30 to 7.30 | > 7.30 | > 7.30 | 6.00 to 7.00 | – | > 7.00 | – | – | – | CCc1cc(NC(=O)C(=O)N2C[C@@H](C)CC[C@@H]2c2ccc3sc(CN4CCOCC4)nc3c2)cnc1N [Compound 1092, N-(6-amino-5-ethylpyridin-3-yl)-2-((2R,5S)-5-methyl-2-(2-(morpholinomethyl)benzo[d]thiazol-5-yl)piperidin-1-yl)-2-oxoacetamide] | – | – | – | – | – | > 6.00 | – | A (an IC50 ratio greater than or equal to 10 fold) | – | –
17 | 6.30 to 7.30 | – | > 7.30 | 6.00 to 7.00 | > 7.00 | – | > 7.30 | – | – | CCc1cc(NC(=O)C(=O)N2C[C@@H](C)CC[C@@H]2c2ccc(N3CCN(C)C[C@H]3C)nc2)cnc1N [Compound 1294, N-(6-amino-5-ethyl-3-pyridyl)-2-[(2R,5S)-2-[6-[(2R)-2,4-dimethylpiperazin-1-yl]-3-pyridyl]-5-methyl-1-piperidyl]-2-oxo-acetamide] | A (an IC50 ratio greater than or equal to 10 fold) | – | – | – | – | – | – | – | > 6.00 | –
18 | < 6.30 | – | < 6.30 | < 6.00 | < 6.00 | – | < 6.30 | – | – | Cc1cc(NC(=O)C(=O)N2C[C@@H](C)[C@H](CC(C)C)C[C@@H]2c2ccc3scnc3c2)cnc1N (single isomer, unassigned) [Compound 1284] | – | – | – | – | – | – | – | – | < 5.00 | –
19 | 6.30 to 7.30 | 6.30 to 7.30 | 6.30 to 7.30 | – | – | – | – | < 6.00 | 6.00 to 7.00 | [H][C@]1([C@]2([H])C[C@@]3(C[C@H](O)C3)C2)CC[C@H](C)CN1C(=O)C(=O)Nc1cnc(N)c(C)c1 (single isomer, unassigned) [Compound 768] | B (an IC50 ratio greater than or equal to 3 fold but lower than 10 fold) | – | – | – | – | – | – | – | – | < 5.00
